Where “and” joins values, the source holds several entries; their conditions need not be identical. Identical values can stand only once.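 Where inhibition never reached the appropriate level, the endpoint shown equals the highest concentration tested. Otherwise, values were interpolated linearly from a five-concentration, 48-hour dose response in 96-well plates. GI50: concentration for 50% inhibition of growth.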 Calls of active or inactive are those of the source. Rule as the data show it: active = GI50 up to about 1.1 µM and inactive = higher.
Columns and labels:
Assay in all cases: NCI-60 cell line screen, 48 h
[1] = test system: T47D
[2] = test system: EKVX
[3] = test system: Hs-578T
[4] = test system: OVCAR-5
[5] = test system: SK-MEL-5
[6] = test system: COLO 205
[7] = test system: ACHN
[8] = test system: OVCAR-3
[9] = test system: HCT-15
[10] = test system: MDA-MB-231
[11] = test system: MDA-N
[12] = test system: UO-31
[13] = test system: NCI-H522
[14] = test system: NCI-H23
[15] = test system: NCI-H460
[16] = test system: SK-OV-3
[17] = test system: A549
[18] = test system: SK-MEL-28
[19] = test system: OVCAR-4
[20] = test system: SW-620
[21] = test system: IGROV-1
[22] = test system: K562
[23] = test system: HOP-62
[24] = test system: CAKI-1
[25] = test system: DU-145
[26] = test system: MCF7
[27] = test system: SF-295
[28] = test system: U-251
[29] = test system: RXF 393
[30] = test system: SN12C
[31] = test system: HCC 2998
[32] = test system: HOP-92
[33] = test system: OVCAR-8
[34] = test system: UACC-257
[35] = test system: RPMI-8226
[36] = test system: TK-10
[37] = test system: SNB-19
[38] = test system: HT-29
[39] = test system: LOX IMVI
[40] = test system: PC-3
[41] = test system: 786-0
[42] = test system: HCT-116
[43] = test system: SF-268
[44] = test system: NCI/ADR-RES
[45] = test system: NCI-H226
[46] = test system: BT-549
[47] = test system: CCRF-CEM
[48] = test system: SK-MEL-2
[49] = test system: M14
[50] = test system: SNB-75
[51] = test system: SF-539
[52] = test system: MOLT-4
[53] = test system: UACC-62
[54] = test system: SR
[55] = test system: A498
[56] = test system: KM12
[57] = test system: Malme-3M
[58] = test system: MDA-MB-435
[59] = test system: HL-60

O=C(O)c1nc(-c2ccccc2)[nH]c1C(=O)O
GI50 [1]: 15.3 µM (inactive) | GI50 [2]: 17.4 µM (inactive) | GI50 [3]: 24.8 µM (inactive) | GI50 [4]: 17.2 µM (inactive) | GI50 [5]: 15.1 µM (inactive) | GI50 [6]: 17 µM (inactive) | GI50 [7]: 16.8 µM (inactive) | GI50 [8]: 11.8 µM (inactive) | GI50 [9]: 14.3 µM | GI50 [10]: 5.62 µM (inactive) | GI50 [11]: 11.8 µM (inactive) | GI50 [12]: 12.1 µM (inactive) | GI50 [13]: 13.1 µM (inactive) | GI50 [14]: 13.9 µM (inactive) | GI50 [15]: 15.4 µM (inactive) | GI50 [16]: 18.4 µM (inactive) | GI50 [17]: 14 µM (inactive) | GI50 [18]: 16.6 µM (inactive) | GI50 [19]: 16.8 µM (inactive) | GI50 [20]: 2.47 µM (inactive) | GI50 [21]: 11.7 µM (inactive) | GI50 [22]: 3.72 µM (inactive) | GI50 [23]: 16 µM (inactive) | GI50 [24]: 14.4 µM (inactive) | GI50 [25]: 15 µM (inactive) | GI50 [26]: 2.32 µM (inactive) | GI50 [27]: 16.7 µM (inactive) | GI50 [28]: 4.18 µM (inactive) | GI50 [29]: 13.5 µM (inactive) | GI50 [30]: 13.6 µM (inactive) | GI50 [31]: 5.94 µM (inactive) | GI50 [32]: 16.3 µM (inactive) | GI50 [33]: 14.1 µM (inactive) | GI50 [34]: 16.6 µM (inactive) | GI50 [35]: 1.84 µM (inactive) | GI50 [36]: 15.5 µM (inactive) | GI50 [37]: 12.5 µM (inactive) | GI50 [38]: 7.03 µM (inactive) | GI50 [39]: 3.01 µM (inactive) | GI50 [40]: 5.32 µM (inactive) | GI50 [41]: 10.6 µM (inactive) | GI50 [42]: 4.43 µM (inactive) | GI50 [43]: 16 µM (inactive) | GI50 [44]: 27.7 µM (inactive) | GI50 [45]: 14.8 µM (inactive) | GI50 [46]: 17.4 µM (inactive) | GI50 [47]: 577 nM (active) | GI50 [48]: 7.76 µM (inactive) | GI50 [49]: 10.9 µM (inactive) | GI50 [50]: 19.4 µM (inactive) | GI50 [51]: 7.8 µM (inactive) | GI50 [52]: 1.04 µM (active) | GI50 [53]: 17.2 µM (inactive) | GI50 [54]: 18.8 nM (active) | GI50 [55]: 15.4 µM (inactive) | GI50 [56]: 4.65 µM (inactive) | GI50 [57]: 15.3 µM (inactive) | GI50 [58]: 8.87 µM (inactive)

COC(=O)C1OC(O[C@H]2CC[C@]3(C)[C@H]4CC=C5[C@@H]6CC(C)(C)CC[C@]6(C(=O)OC6OCC(O)C(O)C6OC6OC(C)C(OC7OCC(O)C(OC8OCC(O)C(O)C8O)C7O)C(OC7OCC(O)C(O)C7O)C6O)CC[C@@]5(C)[C@]4(C)CC[C@H]3C2(C)C)C(O)C(OC2OCC(O)C(O)C2O)C1O (stereo partly drawn)
GI50 [1]: 3.45 µM (inactive) and 3.29 µM (inactive) | GI50 [2]: 3.74 µM (inactive) and 3.72 µM (inactive) | GI50 [3]: 16.1 µM (inactive) and 19.7 µM (inactive) | GI50 [4]: 5.31 µM (inactive) and 4.75 µM (inactive) | GI50 [5]: 3.8 µM (inactive) and 2.52 µM (inactive) | GI50 [6]: 1.6 µM (inactive) and 1.52 µM (inactive) | GI50 [7]: 4.84 µM (inactive) and 4.03 µM (inactive) | GI50 [8]: 9.25 µM (inactive) and 7.82 µM (inactive) | GI50 [9]: 14.1 µM and 27.4 µM | GI50 [10]: 2.73 µM (inactive) and 3.51 µM (inactive) | GI50 [11]: 2.02 µM (inactive) and 1.79 µM (inactive) | GI50 [12]: 2.01 µM (inactive) and 1.9 µM (inactive) | GI50 [13]: 1.95 µM (inactive) and 1.77 µM (inactive) | GI50 [14]: 4.52 µM (inactive) and 3.81 µM (inactive) | GI50 [16]: 12.8 µM (inactive) and 16.6 µM (inactive) | GI50 [17]: 3.17 µM (inactive) and 3.16 µM (inactive) | GI50 [18]: 2.37 µM (inactive) and 2.07 µM (inactive) | GI50 [19]: 6.61 µM (inactive) and 5.24 µM (inactive) | GI50 [20]: 9.2 µM (inactive) and 8.04 µM (inactive) | GI50 [21]: 7.41 µM (inactive) and 9.25 µM (inactive) | GI50 [22]: 4.94 µM (inactive) and 3.94 µM (inactive) | GI50 [24]: 5.24 µM (inactive) and 4.84 µM (inactive) | GI50 [25]: 5.79 µM (inactive) and 9.29 µM (inactive) | GI50 [26]: 4.71 µM (inactive) and 3.27 µM (inactive) | GI50 [27]: 5.19 µM (inactive) and 3.39 µM (inactive) | GI50 [28]: 7.41 µM (inactive) and 6.87 µM (inactive) | GI50 [59]: 2.28 µM (inactive) and 1.97 µM (inactive) | GI50 [30]: 2.25 µM (inactive) and 2.31 µM (inactive) | GI50 [31]: 1.78 µM (inactive) and 1.67 µM (inactive) | GI50 [32]: 2.19 µM (inactive) and 2.25 µM (inactive) | GI50 [33]: 13.2 µM (inactive) and 10.4 µM (inactive) | GI50 [34]: 3.17 µM (inactive) and 2.91 µM (inactive) | GI50 [35]: 2.62 µM (inactive) and 4.37 µM (inactive) | GI50 [36]: 7.35 µM (inactive) and 11.9 µM (inactive) | GI50 [37]: 7.01 µM (inactive) and 6.22 µM (inactive) | GI50 [38]: 3.1 µM (inactive) and 2.9 µM (inactive) | GI50 [39]: 7.85 µM (inactive) and 5.43 µM (inactive) | GI50 [40]: 4.46 µM (inactive) and 4.32 µM (inactive) | GI50 [41]: 5.01 µM (inactive) and 7.71 µM (inactive) | GI50 [42]: 4.04 µM (inactive) and 4.85 µM (inactive) | GI50 [43]: 6.53 µM (inactive) and 8.45 µM (inactive) | GI50 [44]: 5.11 µM (inactive) and 4.45 µM (inactive) | GI50 [45]: 2.9 µM (inactive) and 4.98 µM (inactive) | GI50 [46]: 3.01 µM (inactive) and 2.62 µM (inactive) | GI50 [47]: 11.3 µM (inactive) and 10.6 µM (inactive) | GI50 [48]: 2.22 µM (inactive) and 2.93 µM (inactive) | GI50 [49]: 1.95 µM (inactive) and 2.25 µM (inactive) | GI50 [52]: 8.24 µM (inactive) and 4.91 µM (inactive) | GI50 [53]: 3.08 µM (inactive) and 3.77 µM (inactive) | GI50 [54]: 1.75 µM (inactive) and 2.72 µM (inactive) | GI50 [55]: 1.94 µM (inactive) and 1.66 µM (inactive) | GI50 [56]: 3.1 µM (inactive) and 3.08 µM (inactive) | GI50 [57]: 3.61 µM (inactive) and 5.04 µM (inactive) | GI50 [58]: 2.13 µM (inactive) and 2.14 µM (inactive)

Cc1cccc(NC(=O)CCl)c1
GI50 [1]: > 10 µM (inactive) | GI50 [2]: > 10 µM (inactive) | GI50 [3]: > 10 µM (inactive) | GI50 [4]: > 10 µM (inactive) | GI50 [5]: 7.71 µM (inactive) | GI50 [6]: > 10 µM (inactive) | GI50 [7]: > 10 µM (inactive) | GI50 [8]: 6.4 µM (inactive) | GI50 [9]: > 10 µM | GI50 [10]: 5.93 µM (inactive) | GI50 [11]: > 10 µM (inactive) | GI50 [13]: 1.95 µM (inactive) | GI50 [14]: 4.26 µM (inactive) | GI50 [15]: > 10 µM (inactive) | GI50 [16]: > 10 µM (inactive) | GI50 [17]: > 10 µM (inactive) | GI50 [18]: > 10 µM (inactive) | GI50 [19]: 3.29 µM (inactive) | GI50 [20]: > 10 µM (inactive) | GI50 [21]: > 10 µM (inactive) | GI50 [22]: 6.11 µM (inactive) | GI50 [23]: > 10 µM (inactive) | GI50 [24]: > 10 µM (inactive) | GI50 [25]: > 10 µM (inactive) | GI50 [26]: > 10 µM (inactive) | GI50 [27]: > 10 µM (inactive) | GI50 [28]: 2.24 µM (inactive) | GI50 [29]: 8.49 µM (inactive) | GI50 [59]: 3.56 µM (inactive) | GI50 [30]: 7.67 µM (inactive) | GI50 [31]: > 10 µM (inactive) | GI50 [33]: 9.53 µM (inactive) | GI50 [34]: > 10 µM (inactive) | GI50 [35]: > 10 µM (inactive) | GI50 [36]: > 10 µM (inactive) | GI50 [37]: > 10 µM (inactive) | GI50 [38]: 7.87 µM (inactive) | GI50 [39]: 6.19 µM (inactive) | GI50 [40]: > 10 µM (inactive) | GI50 [41]: 3.67 µM (inactive) | GI50 [42]: 6.95 µM (inactive) | GI50 [43]: 8.69 µM (inactive) | GI50 [44]: > 10 µM (inactive) | GI50 [45]: 7.36 µM (inactive) | GI50 [46]: > 10 µM (inactive) | GI50 [47]: 2520 nM (inactive) | GI50 [48]: > 10 µM (inactive) | GI50 [49]: 8.77 µM (inactive) | GI50 [51]: 9.31 µM (inactive) | GI50 [52]: > 10 µM (inactive) | GI50 [53]: 5.64 µM (inactive) | GI50 [54]: 9930 nM (inactive) | GI50 [55]: > 10 µM (inactive) | GI50 [56]: > 10 µM (inactive) | GI50 [57]: 3.93 µM (inactive) | GI50 [58]: 9.02 µM (inactive)

— ChEMBL document CHEMBL1201862, “PubChem BioAssay data set” (2004)
